In the supplement of paper PMC4862054:

What was measured:
Assay in all cases: normalised viability (% of control), CellTiter-Blue; higher = more viable cells (about 100 = DMSO control)
[1] = test system: MFM-223; conditions: incubation time: 72 h
Method in brief: (§1)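 384-well plates were pre-loaded with compound in 5 µl medium before 20 µl of breast cancer cell suspension was seeded. Following 72 h incubation, 2.5 µl CellTiter-Blue reagent was added for 2 h at 37 °C. Fluorescence was read at 560/590 nm and plates were normalised to vehicle (100) and a positive kill control (0), checked by Z'-factor. Normalised viability is reported at a single listed concentration of the series.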

[2] = test system: CAL-148; conditions: incubation time: 72 h
Method in brief: as §1

[3] = test system: BT-474; conditions: incubation time: 72 h
Method in brief: as §1

[4] = test system: Hs578T; conditions: incubation time: 72 h
Method in brief: as §1

[5] = test system: CAL-51; conditions: incubation time: 72 h
Method in brief: as §1

[6] = test system: HCC1599; conditions: incubation time: 72 h
Method in brief: as §1

[7] = test system: BT-549; conditions: incubation time: 72 h
Method in brief: as §1

[8] = test system: HDQ-P1; conditions: incubation time: 72 h
Method in brief: as §1

[9] = test system: HCC1937; conditions: incubation time: 72 h
Method in brief: as §1

[10] = test system: HCC1143; conditions: incubation time: 72 h
Method in brief: as §1

[11] = test system: MDA-MB-453; conditions: incubation time: 72 h
Method in brief: as §1

[12] = test system: MDA-MB-468; conditions: incubation time: 72 h
Method in brief: as §1

[13] = test system: MDA-MB-436; conditions: incubation time: 72 h
Method in brief: as §1

[14] = test system: DU-4475; conditions: incubation time: 72 h
Method in brief: as §1

[15] = test system: SK-BR-3; conditions: incubation time: 72 h
Method in brief: as §1

[16] = test system: MDA-MB-231; conditions: incubation time: 72 h
Method in brief: as §1

[17] = test system: CAL-120; conditions: incubation time: 72 h
Method in brief: as §1

[18] = test system: CAL-85-1; conditions: incubation time: 72 h
Method in brief: as §1

[19] = test system: CAL-148; conditions: 10 nM; incubation time: 72 h
Method in brief: as §1

[20] = test system: Hs578T; conditions: 100 nM; incubation time: 72 h
Method in brief: as §1

[21] = test system: CAL-51; conditions: 10 nM; incubation time: 72 h
Method in brief: as §1

[22] = test system: HCC1599; conditions: 100 nM; incubation time: 72 h
Method in brief: as §1

[23] = test system: HDQ-P1; conditions: 10 nM; incubation time: 72 h
Method in brief: as §1

[24] = test system: MDA-MB-468; conditions: 100 nM; incubation time: 72 h
Method in brief: as §1

[25] = test system: MDA-MB-436; conditions: 100 nM; incubation time: 72 h
Method in brief: as §1

[26] = test system: CAL-120; conditions: 100 nM; incubation time: 72 h
Method in brief: as §1

[27] = test system: CAL-85-1; conditions: 10 nM; incubation time: 72 h
Method in brief: as §1

Cc1ccc(Nc2nccc(N(C)c3ccc4c(C)n(C)nc4c3)n2)cc1S(N)(=O)=O [Pazopanib]
normalised viability [%]
Conditions | 3 nM | 10 nM | 30 nM | 100 nM | 1000 nM | 10000 nM
[1] | – | 86.8 | – | – | 51.8 | 58.6
[2] | 78.5 | – | 88.9 | 82.1 | – | –
[3] | – | 105 | – | – | 109 | 104
[4] | – | 117 | – | – | 98.1 | 90.8
[5] | 108 | – | 103 | 99.9 | – | –
[6] | – | 96.5 | – | – | 115 | 104
[7] | – | 86.8 | – | – | 86.6 | 45.6
[8] | 107 | – | 103 | 99.2 | – | –
[9] | – | 86.7 | – | – | 92 | 94.3
[10] | – | 76.5 | – | – | 101 | 60.7
[11] | 97.7 | – | 108 | 102 | – | –
[12] | – | 106 | – | – | 108 | 99.4
[13] | – | 97.5 | – | – | 77.4 | 77.4
[14] | 97 | – | 100 | 104 | – | –
[15] | – | 98.4 | – | – | 99 | 88.1
[16] | – | 86.3 | – | – | 88.7 | 61.4
[17] | – | 85.5 | – | – | 91.2 | 97.5
[18] | 92.2 | – | 77.8 | 95.3 | – | –

Conditions | normalised viability [%]
[19] | 88.3
[20] | 86.5
[21] | 104
[22] | 108
[23] | 93.8
[24] | 104
[25] | 88.3
[26] | 81.6
[27] | 95.6
